These results are taken from patent US20240018135A1, “COMPOUND HAVING INHIBITORY ACTIVITY AGAINST O-GLUSACASE AND USE THEREOF” (MEDIFRON DBT INC., priority 2020, published 2024).

pIC50: −log10 of the molar value.

In data set [1] the target is Human OGA (recombinant hOGA protein) (Homo sapiens (Human), UniProt O60502). The data set can be described thus: Human OGA enzyme activity assay (fluorescence, 4-Methylumbelliferyl N-acetyl-β-D-glucosaminide substrate). The format is biochemical. To be noted: for % of inhibition: Table 1, test concentration not given; for pIC50: Table 1.
Sequence of Human OGA (recombinant hOGA protein) (O60502 whole entry): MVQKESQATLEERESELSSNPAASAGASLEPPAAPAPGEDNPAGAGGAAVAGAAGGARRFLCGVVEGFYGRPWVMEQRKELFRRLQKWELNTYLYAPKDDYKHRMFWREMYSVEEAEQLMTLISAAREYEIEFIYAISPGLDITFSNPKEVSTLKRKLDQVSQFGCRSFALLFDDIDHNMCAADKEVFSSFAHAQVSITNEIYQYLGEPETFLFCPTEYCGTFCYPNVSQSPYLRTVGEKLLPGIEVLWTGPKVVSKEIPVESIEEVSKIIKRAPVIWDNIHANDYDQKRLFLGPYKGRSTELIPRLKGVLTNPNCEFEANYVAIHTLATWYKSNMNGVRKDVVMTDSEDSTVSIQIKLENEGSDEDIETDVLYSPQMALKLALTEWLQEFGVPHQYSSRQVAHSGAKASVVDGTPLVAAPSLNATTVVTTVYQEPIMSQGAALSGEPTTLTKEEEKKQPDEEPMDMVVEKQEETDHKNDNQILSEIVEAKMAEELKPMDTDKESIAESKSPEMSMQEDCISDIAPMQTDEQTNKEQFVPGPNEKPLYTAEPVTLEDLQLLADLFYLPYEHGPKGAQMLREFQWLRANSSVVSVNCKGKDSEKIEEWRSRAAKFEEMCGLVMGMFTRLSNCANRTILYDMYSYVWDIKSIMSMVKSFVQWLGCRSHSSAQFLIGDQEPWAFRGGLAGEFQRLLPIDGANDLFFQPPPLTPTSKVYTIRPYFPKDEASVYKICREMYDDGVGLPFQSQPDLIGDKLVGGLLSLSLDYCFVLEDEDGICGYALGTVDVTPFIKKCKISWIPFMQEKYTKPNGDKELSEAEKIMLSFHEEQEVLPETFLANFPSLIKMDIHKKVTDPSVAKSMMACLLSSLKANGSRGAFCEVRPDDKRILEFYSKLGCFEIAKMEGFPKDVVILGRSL

The molecule `CCOc1ccc2nc(NC(=O)CN3CCN(Cc4cnc(NC(C)=O)s4)CC3)sc2c1` [Compound A-29, 2-(4-((2-acetamidothiazol-5 yl)methyl)piperazin-1 yl)-N-(6-ethoxybenzo[d]thiazol-2-yl)acetamide] yielded a melting point of 244 to 246 °C. Besides, the “% of inhibition” value in data set [1] was 44.6%.
The like results for `CC(=O)Nc1ncc(CN2CCN(CC(=O)Nc3nc4c(Cl)cccc4s3)CC2)s1` [Compound A-30, 2-(4-((2-acetamidothiazol-5-yl)methyl)piperazin-1-yl)-N-(4-chlorobenzo[d]thiazol-2-yl)acetamide] were, in that order, 255 to 257 °C and 42.6%.
For `CC(=O)Nc1ncc(CN2CCN(CC(=O)N(C)c3ccccc3)CC2)s1` [Compound A-31, 2-(4-((2-acetamidothiazol-5-yl)methyl)piperazin-1-yl)-N-methyl-N-phenylacetamide], the melting point lay in the range of 208 to 210 °C. Also, the “% of inhibition” value in data set [1] stood at 50.4%.
With `CC(=O)Nc1ncc(CN2CCN(CC(=O)Nc3ccccc3)CC2C)s1` (stereo not shown) [Compound A-32, 2-(4-((2-acetamidothiazol-5 yl)methyl)-3-methylpiperazin-1-yl)-N-phenylacetamide], the melting point was in the range of 174 to 176 °C. Further, in data set [1], the pIC50 was 6.62 and the “% of inhibition” value turned out to be 97.0%.
In the case of `CC(=O)Nc1ncc(CN2CCN(CC(=O)Nc3ccc(F)cc3)CC2C)s1` (stereo not shown) [Compound A-33, 2-(4-((2-acetamidothiazol-5-yl)methyl)-3-methylpiperazin-1-yl)-N-(4-fluorophenyl)acetamide], the melting point lay within 102 to 105 °C. Besides, in data set [1], the pIC50 was 6.64 and the “% of inhibition” value was determined as 97.9%.
The like results for `CC(=O)Nc1ncc(CN2CCN(CC(=O)NC3CCCCC3)CC2C)s1` (stereo not shown) [Compound A-35, 2-(4-((2-acetamidothiazol-5-yl)methyl)-3-methylpiperazin-1-yl)-N-cyclohexylacetamide] were, in that order, 184 to 187 °C, 7.00 and 98.4%.
As for `CC(=O)Nc1ncc(CN2CCN(CC(=O)Nc3ccc(N4CCN(C(C)=O)CC4)cc3)CC2)s1` [Compound A-36, 2-(4-((2-acetamidothiazol-5 yl)methyl)piperazin-1-yl)-N-(4-(4-acetylpiperazin-1-yl)phenyl)acetamide], the melting point is 180 to 182 °C. In data set [1], the pIC50 is 5.98 and the “% of inhibition” value turned out to be 96.2%.
For the molecule `CC(=O)Nc1ncc(CN2CCN(CC(=O)Nc3ccc(N4CCN(C(C)=O)CC4)cc3)CC2C)s1` (stereo not shown) [Compound A-37, 2-(4-((2-acetamidothiazol-5-yl)methyl)-3-methylpiperazin-1-yl)-N-(4-(4-acetylpiperazin-1-yl)phenyl)acetamide], the melting point amounted to 232 °C. Also, in data set [1], the pIC50 is 7.15 and the “% of inhibition” value turned out to be 98.4%.
The like results for `CC(=O)Nc1ncc(CN2CCN(CC(=O)Nc3ccc(Cc4ccccc4)cc3)CC2)s1` [Compound A-38, 2-(4-((2-acetamidothiazol-5-yl)methyl)piperazin-1-yl)-N-(4-benzylphenyl)acetamide] were, in that order, 132 to 134 °C, 6.43 and 90.8%.
Molecule `CC(=O)Nc1ncc(CN2CCN(CC(=O)Nc3ccc(Cc4ccccc4)cc3)CC2C)s1` (stereo not shown) [Compound A-39, 2-(4-((2-acetamidothiazol-5-yl)methyl)-3-methylpiperazin-1-yl)-N-(4-benzylphenyl)acetamide] returned a melting point of 193 to 195 °C. For the same molecule, in data set [1], the pIC50 was 7.22 and the “% of inhibition” value was determined as 98.8%.
`CC(=O)Nc1ncc(CN2CCN(CC(=O)NCc3ccc(-c4ccccc4)cc3)CC2)s1` [Compound A-40, N-([1,1′-biphenyl]-4-ylmethyl)-2-(4-((2-acetamidothiazol-5-yl)methyl)piperazin-1-yl)acetamide]: the melting point lay within 167 to 170 °C. Further, in data set [1], the negative logarithm of the IC50 (pIC50) was 6.68 and the “% of inhibition” value is 97.7%.
The molecule `CC(=O)Nc1ncc(CN2CCN(CC(=O)NCc3ccc(-c4ccccc4)cc3)CC2C)s1` (stereo not shown) [Compound A-41, N-([1,1′-biphenyl]-4-ylmethyl)-2-(4-((2-acetamidothiazol-5-yl)methyl)-3-methylpiperazin-1-yl)acetamide] yielded a melting point of 215 to 216 °C. In data set [1], the pIC50 is 7.52 and the “% of inhibition” value came to 99.6%.
In the case of `CC(=O)Nc1ncc(CN2CCC(C(=O)Nc3ccccc3)CC2)s1` [Compound B-1, 1-((2-acetamidothiazol-5-yl)methyl)N-phenylpiperidine-4-carboxamide], the melting point was 172 to 174 °C. For the same molecule, in data set [1], the pIC50 is 6.06 and the “% of inhibition” value is given as 87.0%.
The molecule `CC(=O)Nc1ncc(CN2CCC(C(=O)Nc3ccc(Cl)cc3)CC2)s1` [Compound B-2, 1-((2-acetamidothiazol-5-yl)methyl)-N-(4-chlorophenyl)piperidine-4-carboxamide] came in with a melting point of 258 to 260 °C. In addition, in data set [1], the negative-log IC50 (pIC50) was 6.57 and the “% of inhibition” value amounted to 91.0%.
`CC(=O)Nc1ncc(CN2CCC(C(=O)Nc3ccc(C(C)C)cc3)CC2)s1` [Compound B-3, 1-((2-acetamidothiazol-5-yl)methyl)-N-(4-isopropylphenyl)piperidine-4-carboxamide] displayed a melting point of 257 to 258 °C. In addition, in data set [1], the negative-log IC50 (pIC50) was 6.17 and the “% of inhibition” value is 91.8%.
Consider `CC(=O)Nc1ncc(CN2CCC(C(=O)Nc3cnccn3)CC2)s1` [Compound B-4, 1-((2-acetamidothiazol-5-yl)methyl)-N-(pyrazin-2-yl)piperidine-4-carboxamide], for which the melting point lay within 178 to 180 °C. The “% of inhibition” value in data set [1] is given as 66.9%.
The like results for `CC(=O)Nc1ncc(CN2CCC(C(=O)NC3CCCCC3)CC2)s1` [Compound B-5, 1-((2-acetamidothiazol-5-yl)methyl)-N-cyclohexylpiperidine-4-carboxamide] were, in that order, 231 to 232 °C and 46.7%.
Regarding `CC(=O)Nc1ncc(CN2CCC(C(=O)Nc3ccc4ncccc4c3)CC2)s1` [Compound B-6, 1-((2-acetamidothiazol-5 yl)methyl)-N-(quinolin-6-yl)piperidine-4-carboxamide], the melting point was in the range of 234 to 236 °C. Moreover, in data set [1], the pIC50 was 6.49 and the “% of inhibition” value was 91.4%.
Turning to `CC(=O)Nc1ncc(CN2CCC(C(=O)NCc3ccccc3)CC2)s1` [Compound B-7, 1-((2-acetamidothiazol-5-yl)methyl)-N-benzylpiperidine-4-carboxamide], the melting point is 176 to 178 °C. In addition, in data set [1], the pIC50 was 6.00 and the “% of inhibition” value came out at 88.2%.
For the molecule `COc1ccc(CNC(=O)C2CCN(Cc3cnc(NC(C)=O)s3)CC2)cc1` [Compound B-8, 1-((2-acetamidothiazol-5-yl)methyl)-N-(4-methoxybenzyl)piperidine-4-carboxamide], the melting point is 215 to 217 °C. In data set [1], the pIC50 was 6.07 and the “% of inhibition” value was determined as 93.9%.
